The results in this text go back to US4959363A, “Quinolonecarboxamide compounds, their preparation and use as antivirals” (Sterling Drug Inc., priority 1989, dated 1990).

On the set-up of data set [1]: species or system albino mice. The settings on record: mouse.
Data set [2] in a line: In vitro maximum tolerated dose (MTL), Vero cells. Type of data set: cell-based, African Green Monkey. The conditions noted are these: monkey, In Vitro.
Another data set deals with herpes simplex virus. Briefly: In Vivo - Intravaginal Herpes Virus Infection in Mice. More on the design: species or system albino mice. The settings on record: Mus musculus, 336 h, oral or intraperitoneal, b.i.d. 5 days, NA = Not active at dose levels tested, read-out: In Vivo MED (Minimum effective dose). Here is the method: In Vivo - Intravaginal Herpes Virus Infection in Mice
Approximately 1 hr. prior to infection, the vaginas of 15 gm albino mice were swabbed with cotton saturated with 0.1 N NaOH to remove vaginal secretions and to irritate the vaginal mucosa slightly. At the proper time, 0.05 ml of an appropriate dose of herpes simplex virus was placed deep in the vagina. Starting 2.5 hrs. prior to infection, the mice were medicated either orally or intraperitoneally. Medication was continued daily for a total of 5 days on a b.i.d. regimen. The test was terminated after 14 days. A comparison of the number of surviving mice and/or extension of survival was made at the end of the test. The criterion for activity was a statistically significant extension of the average survival time of the test group over that of the control mice in two experiments.

Take `Cc1cc(-c2ccc3c(=O)c(C(N)=O)cn(-c4ccc(F)cc4)c3c2)on1` [Example 22f]: the “In Vivo MTL (Maximum tolerated dose)” value in data set [1] is > 200. For the same compound, the MNTC at 72 h in data set [2] (vero cells) was > 100 µg/mL.

On to `NC(=O)c1cn(-c2ccc(Cl)c(Cl)c2)c2cc(-c3ccncc3)ccc2c1=O` [Example 14, 1-(3,4-Dichlorophenyl)-1,4-dihydro-4-oxo-7-(4-pyridinyl)-3-quinolinecarboxamide], for which the minimal effective dose with herpes simplex virus worked out at 50 mg/kg/day. The “In Vivo MTL (Maximum tolerated dose)” value in data set [1] came out at 100. For the same compound, the MNTC at 72 h in data set [2] (vero cells) was > 12.5 µg/mL.

For `CCn1cc(C(N)=O)c(=O)c2ccc(-c3ccno3)cc21` [Example 24c, 1-Ethyl-1,4-dihydro-7-(5-isoxazolyl)-4-oxo-3-quinolinecarboxamide], the “In Vivo MTL (Maximum tolerated dose)” value in data set [1] is reported as > 200. Besides, in data set [2] (vero cells), the MNTC at 72 h is 12.5 µg/mL.

Take `COc1ccc(-n2cc(C(N)=O)c(=O)c3ccc(-c4ccncc4)cc32)cc1` [Example 8, 1,4-Dihydro-1-(4-methoxyphenyl)-4-oxo-7-(4-pyridinyl)-3quinolinecarboxamide]: the “In Vivo MTL (Maximum tolerated dose)” value in data set [1] is listed as 50. The MNTC at 72 h in data set [2] (vero cells) is > 25 µg/mL.

Consider `CCn1c(=O)c(C(N)=O)c(O)c2ccc(-c3ccncc3)cc21` [Example 38c, 1-Ethyl-1,2-dihydro-4-hydroxy-2-oxo-7-(4-pyridinyl)-3quinolinecarboxamide], for which, in the data set on herpes simplex virus, the minimal effective dose was in the range of 100 to 200 mg/kg/day. For the same compound, the “In Vivo MTL (Maximum tolerated dose)” value in data set [1] worked out at 100. In data set [2] (vero cells), the MNTC at 72 h was > 12.5 µg/mL.

Regarding `CCn1cc(C(=O)NO)c(=O)c2ccc(-c3ccncc3)cc21` [Example 30, 1-Ethyl-1,4-dihydro-N-hydroxy-4-oxo-7-(4-pyridinyl)-3quinolinecarboxamide], the “In Vivo MTL (Maximum tolerated dose)” value in data set [1] was determined as 100. The compound also came in with an MNTC at 72 h in data set [2] (vero cells) of 25 µg/mL.

As to `NC(=O)c1cn(-c2ccc(F)cc2)c2cc(-c3ccccc3)ccc2c1=O` [Example 44, 1,4-Dihydro-1-(4-fluorophenyl)-4-oxo-7-phenyl-3-quinolinecarboxamide], the “In Vivo MTL (Maximum tolerated dose)” value in data set [1] is given as > 200. This compound yielded an MNTC at 72 h in data set [2] (vero cells) of 12.5 µg/mL.

Take `NC(=O)c1cn(-c2ccc(C(F)(F)F)cc2)c2cc(-c3ccncc3)ccc2c1=O` [Example 35, 1,4-Dihydro-7-(4-pyridinyl)-1-(4-trifluoromethylphenyl)-4-oxo-3-quinolinecarboxamide]: the “In Vivo MTL (Maximum tolerated dose)” value in data set [1] turned out to be 50. Further, the MNTC at 72 h in data set [2] (vero cells) is > 100 µg/mL.

On to `NC(=O)c1cn(-c2ccccc2F)c2cc(-c3ccncc3)ccc2c1=O` [Example 34, 1,4-Dihydro-1-(2-fluorophenyl)-7-(4-pyridinyl)-4-oxo-3quinolinecarboxamide], for which the “In Vivo MTL (Maximum tolerated dose)” value in data set [1] came out at 100. The same compound had an MNTC at 72 h in data set [2] (vero cells) of 1.6 µg/mL.

With `CCCCn1cc(C(N)=O)c(=O)c2ccc(-c3ccncc3)cc21` [Example 17, 1-Butyl-1,4-dihydro-4-oxo-7-(4-pyridinyl)-3-quinolinecarboxamide], the “In Vivo MTL (Maximum tolerated dose)” value in data set [1] was determined as 50. In data set [2] (vero cells), this compound registered an MNTC at 72 h of 6.2 µg/mL.

On to `CCn1cc(C(=O)NN)c(=O)c2ccc(-c3ccccc3)cc21` [Example 36, 1-Ethyl-1,4-dihydro-4-oxo-7-phenyl-3-quinolinecarboxylic acid hydrazide], for which the “In Vivo MTL (Maximum tolerated dose)” value in data set [1] is on record as > 200. The compound also returned an MNTC at 72 h in data set [2] (vero cells) of 25 µg/mL.

On to `NC(=O)c1cn(-c2ccc(Cl)cc2)c2cc(-c3ccncc3)ccc2c1=O` [Example 32, 1-(4-Chlorophenyl)-1,4-dihydro-7-(4-pyridinyl)-4-oxo-3quinolinecarboxamide], for which the minimal effective dose with herpes simplex virus was found to be 50 mg/kg/day. The MNTC at 72 h in data set [2] (Vero cells) was > 25 µg/mL.

`CCn1cc(C(N)=O)c(=O)c2ccc(-c3ccccn3)cc21` [Example 20, 1-Ethyl-1,4-dihydro-4-oxo-7-(2-pyridinyl)-3-quinolinecarboxamide]: the “In Vivo MTL (Maximum tolerated dose)” value in data set [1] was found to be 100. In addition, the MNTC at 72 h in data set [2] (vero cells) is 25 µg/mL.

Take `Cc1ccc(-n2cc(C(N)=O)c(=O)c3ccc(-c4ccncc4)cc32)cc1C` [Example 13, 1,4-Dihydro-1-(3,4-dimethylphenyl)-4-oxo-7-(4-pyridinyl)-3-quinolinecarboxamide]: the MNTC at 72 h in data set [2] (vero cells) is > 100 µg/mL.

Take `NC(=O)c1cn(Cc2ccc(Cl)c(Cl)c2)c2cc(-c3ccncc3)ccc2c1=O` [Example 12, 1-(3,4-Dichlorobenzyl)-1,4-dihydro-4-oxo-7-(4-pyridinyl)-3-quinolinecarboxamide]: the “In Vivo MTL (Maximum tolerated dose)” value in data set [1] is > 100. Besides, the MNTC at 72 h in data set [2] (vero cells) is > 100 µg/mL.

With `Cn1cc(C(N)=O)c(=O)c2ccc(-c3ccncc3)cc21` [Example 16, 1,4-Dihydro-1-methyl-4-oxo-7-(4-pyridinyl)-3-quinolinecarboxamide], the “In Vivo MTL (Maximum tolerated dose)” value in data set [1] came out at 25. Besides, the MNTC at 72 h in data set [2] (vero cells) was > 25 µg/mL.

Turning to `CCn1cc(C(=O)NN)c(=O)c2ccc(-c3ccncc3)cc21` [Example 29, 1-Ethyl-1,4-dihydro-4-oxo-7-(4-pyridinyl)-3-quinolinecarboxylic acid hydrazide], the “In Vivo MTL (Maximum tolerated dose)” value in data set [1] is 100. Besides, the MNTC at 72 h in data set [2] (vero cells) was 50 µg/mL.

As for `Cc1ccc(-n2cc(C(N)=O)c(=O)c3ccc(-c4ccncc4)cc32)cc1` [Example 33, 1,4-Dihydro-1-(4-methylphenyl)-7-(4-pyridinyl)-4-oxo-3quinolinecarboxamide], the “In Vivo MTL (Maximum tolerated dose)” value in data set [1] was found to be 50. Also, the MNTC at 72 h in data set [2] (vero cells) was > 25 µg/mL.

For the compound `CCn1cc(C(N)=O)c(=O)c2ccc(-c3cccnc3)cc21` [Example 27b, 1-Ethyl-1,4-dihydro-4-oxo-7-(3-pyridinyl)-3-quinolinecarboxamide], the “In Vivo MTL (Maximum tolerated dose)” value in data set [1] was 100. This compound returned an MNTC at 72 h in data set [2] (vero cells) of 50 µg/mL.

Consider `CCn1cc(C(N)=O)c(=O)c2ccc(-c3cc(C)nc(C)c3)cc21` [Example 7, 1-Ethyl-1,4-dihydro-4-oxo-7-(2,6-dimethyl-4-pyridinyl)-3quinolinecarboxamide], for which the “In Vivo MTL (Maximum tolerated dose)” value in data set [1] was determined as 25. Besides, in data set [2] (vero cells), the MNTC at 72 h was found to be 12.5 µg/mL.

In data set [2] (Vero cells), `CCCCCn1cc(C(N)=O)c(=O)c2ccc(-c3ccncc3)cc21` [Example 26, 1,4-Dihydro-4-oxo-1-pentyl-7-(4-pyridinyl)-3-quinolinecarboxamide] yielded an MNTC at 72 h of 6.2 µg/mL.

In the case of `NC(=O)c1cn(-c2ccc(F)cc2F)c2cc(-c3ccncc3)ccc2c1=O` [Example 15, 1-(2,4-Difluorophenyl)-1,4-dihydro-4-oxo-7-(4-pyridinyl)-3-quinolinecarboxamide], in data set [1], the “In Vivo MTL (Maximum tolerated dose)” value is listed as < 25. The MNTC at 72 h in data set [2] (vero cells) came out at 3.1 µg/mL.

For `CC(C)(C)c1ccc(-n2cc(C(N)=O)c(=O)c3ccc(-c4ccncc4)cc32)cc1` [Example 9, 1-[4-(1,1-Dimethylethyl)phenyl]-1,4-dihydro-4-oxo-7-(4-pyridinyl)-3-quinolinecarboxamide], in data set [2] (vero cells), the MNTC at 72 h was > 25 µg/mL.

On to `O=C(NCN1CCCCC1)c1cn(-c2ccc(F)cc2)c2cc(-c3ccncc3)ccc2c1=O` [Example 5, N-(1-Piperidinylmethyl)-1-(4-fluorophenyl)-1,4-dihydro-4-oxo-7-(4-pyridinyl)-3-quinolinecarboxamide], for which the MNTC at 72 h in data set [2] (vero cells) is > 12.5 µg/mL.

Turning to `C=CCn1cc(C(N)=O)c(=O)c2ccc(-c3ccncc3)cc21` [Example 19, 1,4-Dihydro-4-oxo-1-(2-propenyl)-7-(4-pyridinyl)-3-quinolinecarboxamide], the “In Vivo MTL (Maximum tolerated dose)” value in data set [1] is < 50. Also, the MNTC at 72 h in data set [2] (vero cells) worked out at 6.25 µg/mL.

With `CCCn1cc(C(N)=O)c(=O)c2ccc(-c3ccncc3)cc21` [Example 18, 1,4-Dihydro-4-oxo-1-propyl-7-(4-pyridinyl)-3-quinolinecarboxamide], in data set [2] (vero cells), the MNTC at 72 h was 6.25 µg/mL.

Consider `NC(=O)c1c(O)n(-c2ccc(F)cc2)c2cc(-c3ccncc3)ccc2c1=O` [Example 47e, 1,4-Dihydro-1-(4-fluorophenyl)-2-hydroxy-7-(4-pyridinyl)4-oxo-3-quinolinecarboxamide], for which the MNTC at 72 h in data set [2] (vero cells) is > 100 µg/mL.

`CCn1cc(C(N)=O)c(=O)c2cc(F)c(-c3ccncc3)cc21` [Example 25, 1-Ethyl-6-fluoro-1,4-dihydro-4-oxo-7-(4-pyridinyl)-3quinolinecarboxamide]: the MNTC at 72 h in data set [2] (vero cells) is > 100 µg/mL.

As for `CCn1c(N)c(C(N)=O)c(=O)c2ccc(-c3ccncc3)cc21` [Example 40b, 2-Amino-1,4-dihydro-1-ethyl-4-oxo-7-(4-pyridinyl)-3quinolinecarboxamide], in data set [1], the “In Vivo MTL (Maximum tolerated dose)” value is listed as > 100. In addition, the MNTC at 72 h in data set [2] (vero cells) was > 12.5 µg/mL.

In the case of `CCn1cc(C(N)=O)c(=O)c2ccc(-c3cc(C)no3)cc21` [Example 23d, 1-Ethyl-1,4-dihydro-7-(3-methyl-5-isoxazolyl)-4-oxo-3-quinolinecarboxamide], in data set [1], the “In Vivo MTL (Maximum tolerated dose)” value was > 200. In data set [2] (vero cells), the MNTC at 72 h is > 100 µg/mL.

Take `NC(=O)c1cn(C2CC2)c2cc(-c3ccncc3)ccc2c1=O` [Example 11, 1-Cyclopropyl-1,4-dihydro-4-oxo-7-(4-pyridinyl)-3-quinolinecarboxamide]: in data set [1], the “In Vivo MTL (Maximum tolerated dose)” value came out at 25. The same compound gave an MNTC at 72 h in data set [2] (vero cells) of 25 µg/mL.

As for `NC(=O)c1cn(-c2ccc(F)cc2)c2cc(-c3ccncc3)c(F)cc2c1=O` [Example 48c], in data set [1], the “In Vivo MTL (Maximum tolerated dose)” value was > 100. The MNTC at 72 h in data set [2] (vero cells) came out at 6.25 µg/mL.

`NC(=O)c1cn(-c2ccccc2)c2cc(-c3ccncc3)ccc2c1=O` [Example 21, 1,4-Dihydro-4-oxo-1-phenyl-7-(4-pyridinyl)-3-quinolinecarboxamide] yielded an MNTC at 72 h in data set [2] (vero cells) of 6.25 µg/mL.

As for `O=C(NCN1CCOCC1)c1cn(-c2ccc(F)cc2)c2cc(-c3ccncc3)ccc2c1=O` [Example 4, N-(4-Morpholinylmethyl)-1-(4-fluorophenyl)-1,4-dihydro-4-oxo-7-(4-pyridinyl)-3-quinolinecarboxamide], in data set [2] (vero cells), the MNTC at 72 h was > 12.5 µg/mL.
